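These data come from cells grown in 96-well plates and exposed to compound for 48 hours at five concentrations. GI50 = concentration required for 50% inhibition of growth. The concentration for full growth arrest is given as TGI.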
Columns and labels:
Experiment in all cases: NCI anticancer screen, dose series, 48 h
HCC-2998 colon = system: HCC-2998 colon
UO-31 renal = system: UO-31 renal
MDA-MB-468 breast = system: MDA-MB-468 breast
HOP-62 NSCLC = system: HOP-62 NSCLC
MDA-MB-435 = system: MDA-MB-435
UACC-257 melanoma = system: UACC-257 melanoma
ACHN renal = system: ACHN renal
NCI-H522 lung = system: NCI-H522 lung
HT29 colon = system: HT29 colon
IGROV1 ovarian = system: IGROV1 ovarian
OVCAR-8 ovarian = system: OVCAR-8 ovarian
SW-620 colon = system: SW-620 colon
SNB-75 CNS = system: SNB-75 CNS
M14 melanoma = system: M14 melanoma
RXF 393 renal = system: RXF 393 renal
NCI-H460 lung = system: NCI-H460 lung
CCRF-CEM leukemia = system: CCRF-CEM leukemia
EKVX NSCLC = system: EKVX NSCLC
SF-295 CNS = system: SF-295 CNS
786-0 renal = system: 786-0 renal
MDA-MB-231 breast = system: MDA-MB-231 breast
HOP-92 NSCLC = system: HOP-92 NSCLC
UACC-62 melanoma = system: UACC-62 melanoma
COLO 205 colon = system: COLO 205 colon
KM12 colon = system: KM12 colon
NCI-H23 lung = system: NCI-H23 lung
NCI/ADR-RES ovarian = system: NCI/ADR-RES ovarian
K-562 leukemia = system: K-562 leukemia
A549 NSCLC = system: A549 NSCLC
RPMI-8226 leukemia = system: RPMI-8226 leukemia
TK-10 renal = system: TK-10 renal
SK-MEL-2 melanoma = system: SK-MEL-2 melanoma
HS 578T breast = system: HS 578T breast
BT-549 breast = system: BT-549 breast
SF-268 CNS = system: SF-268 CNS
MALME-3M melanoma = system: MALME-3M melanoma
A498 renal = system: A498 renal
DU-145 prostate = system: DU-145 prostate
SN12C renal = system: SN12C renal
T-47D breast = system: T-47D breast
HCT-15 colon = system: HCT-15 colon
HL-60(TB) leukemia = system: HL-60(TB) leukemia
CAKI-1 renal = system: CAKI-1 renal
OVCAR-5 ovarian = system: OVCAR-5 ovarian
SK-MEL-5 melanoma = system: SK-MEL-5 melanoma
PC-3 prostate = system: PC-3 prostate
SK-MEL-28 melanoma = system: SK-MEL-28 melanoma
SNB-19 CNS = system: SNB-19 CNS
SK-OV-3 ovarian = system: SK-OV-3 ovarian
MCF7 breast = system: MCF7 breast
OVCAR-4 ovarian = system: OVCAR-4 ovarian
NCI-H226 lung = system: NCI-H226 lung
U251 CNS = system: U251 CNS
LOX IMVI melanoma = system: LOX IMVI melanoma
OVCAR-3 ovarian = system: OVCAR-3 ovarian
SR leukemia = system: SR leukemia
MOLT-4 leukemia = system: MOLT-4 leukemia
SF-539 CNS = system: SF-539 CNS

Compound CC1=C2C(=C[C@@](C)(COP(=O)(Oc3ccccc3)Oc3ccccc3)[C@@H]2O)C(=O)[C@@](C)(O)C12CC2 has a GI50 (HCC-2998 colon) of 216 nM, a TGI (HCC-2998 colon) of 639 nM and a GI50 (UO-31 renal) of 460 nM. The TGI (UO-31 renal) was 1270 nM, the GI50 (MDA-MB-468 breast) was 147 nM and the TGI (MDA-MB-468 breast) was 503 nM. The GI50 (HOP-62 NSCLC) was 408 nM, the TGI (HOP-62 NSCLC) was 1280 nM and the GI50 (MDA-MB-435) was 637 nM. For the same compound, the TGI (MDA-MB-435) was 2060 nM, the GI50 (UACC-257 melanoma) was 792 nM and the TGI (UACC-257 melanoma) was 2310 nM. The GI50 (ACHN renal) was 232 nM, the TGI (ACHN renal) was 686 nM and the GI50 (NCI-H522 lung) was 223 nM. It also gave a TGI (NCI-H522 lung) of 655 nM, a GI50 (HT29 colon) of 201 nM and a TGI (HT29 colon) of 705 nM. It also gave a GI50 (IGROV1 ovarian) of 399 nM, a TGI (IGROV1 ovarian) of 1240 nM and a GI50 (OVCAR-8 ovarian) of 286 nM. The TGI (OVCAR-8 ovarian) was 1090 nM, the GI50 (SW-620 colon) was 1700 nM and the TGI (SW-620 colon) was 18300 nM. For the same compound, the GI50 (SNB-75 CNS) was 477 nM, the TGI (SNB-75 CNS) was 1270 nM and the GI50 (M14 melanoma) was 551 nM. The TGI (M14 melanoma) was 1310 nM, the GI50 (RXF 393 renal) was 188 nM and the TGI (RXF 393 renal) was 493 nM. It also gave a GI50 (NCI-H460 lung) of 234 nM, a TGI (NCI-H460 lung) of 744 nM and a GI50 (CCRF-CEM leukemia) of 1880 nM. For the same compound, the TGI (CCRF-CEM leukemia) was > 39800 nM, the GI50 (EKVX NSCLC) was 641 nM and the TGI (EKVX NSCLC) was 1800 nM. For the same compound, the GI50 (SF-295 CNS) was 294 nM, the TGI (SF-295 CNS) was 1230 nM and the GI50 (786-0 renal) was 284 nM. It also gave a TGI (786-0 renal) of 857 nM, a GI50 (MDA-MB-231 breast) of 351 nM and a TGI (MDA-MB-231 breast) of 1030 nM. For the same compound, the GI50 (HOP-92 NSCLC) was 574 nM, the TGI (HOP-92 NSCLC) was 1580 nM and the GI50 (UACC-62 melanoma) was 312 nM. The TGI (UACC-62 melanoma) was 804 nM, the GI50 (COLO 205 colon) was 530 nM and the TGI (COLO 205 colon) was 1200 nM. For the same compound, the GI50 (KM12 colon) was 628 nM, the TGI (KM12 colon) was 5820 nM and the GI50 (NCI-H23 lung) was 158 nM. It also gave a TGI (NCI-H23 lung) of 384 nM, a GI50 (NCI/ADR-RES ovarian) of 236 nM and a TGI (NCI/ADR-RES ovarian) of 778 nM. For the same compound, the GI50 (K-562 leukemia) was 1560 nM, the TGI (K-562 leukemia) was > 69500 nM and the GI50 (A549 NSCLC) was 781 nM. For the same compound, the TGI (A549 NSCLC) was 3290 nM, the GI50 (RPMI-8226 leukemia) was 4560 nM and the TGI (RPMI-8226 leukemia) was 38900 nM. It also gave a GI50 (TK-10 renal) of 854 nM, a TGI (TK-10 renal) of 3090 nM and a GI50 (SK-MEL-2 melanoma) of 246 nM. For the same compound, the TGI (SK-MEL-2 melanoma) was 596 nM, the GI50 (HS 578T breast) was 1010 nM and the TGI (HS 578T breast) was 4460 nM. The GI50 (BT-549 breast) was 211 nM, the TGI (BT-549 breast) was 614 nM and the GI50 (SF-268 CNS) was 350 nM. For the same compound, the TGI (SF-268 CNS) was 1500 nM, the GI50 (MALME-3M melanoma) was 382 nM and the TGI (MALME-3M melanoma) was 1000 nM. For the same compound, the GI50 (A498 renal) was 1150 nM, the TGI (A498 renal) was 4090 nM and the GI50 (DU-145 prostate) was 332 nM. It also gave a TGI (DU-145 prostate) of 1340 nM, a GI50 (SN12C renal) of 521 nM and a TGI (SN12C renal) of 1550 nM. For the same compound, the GI50 (T-47D breast) was 946 nM, the TGI (T-47D breast) was 5190 nM and the GI50 (HCT-15 colon) was 208 nM. The TGI (HCT-15 colon) was 875 nM, the GI50 (HL-60(TB) leukemia) was 213 nM and the TGI (HL-60(TB) leukemia) was 1280 nM. It also gave a GI50 (CAKI-1 renal) of 289 nM, a TGI (CAKI-1 renal) of 2170 nM and a GI50 (OVCAR-5 ovarian) of 359 nM. The TGI (OVCAR-5 ovarian) was 1340 nM, the GI50 (SK-MEL-5 melanoma) was 219 nM and the TGI (SK-MEL-5 melanoma) was 609 nM. It also gave a GI50 (PC-3 prostate) of 397 nM, a TGI (PC-3 prostate) of 2340 nM and a GI50 (SK-MEL-28 melanoma) of 681 nM. It also gave a TGI (SK-MEL-28 melanoma) of 1690 nM, a GI50 (SNB-19 CNS) of 630 nM and a TGI (SNB-19 CNS) of 4930 nM. It also gave a GI50 (SK-OV-3 ovarian) of 357 nM, a TGI (SK-OV-3 ovarian) of 1310 nM and a GI50 (MCF7 breast) of 141 nM. For the same compound, the TGI (MCF7 breast) was 4690 nM, the GI50 (OVCAR-4 ovarian) was 355 nM and the TGI (OVCAR-4 ovarian) was 1470 nM. It also gave a GI50 (NCI-H226 lung) of 723 nM, a TGI (NCI-H226 lung) of 3840 nM and a GI50 (U251 CNS) of 249 nM. For the same compound, the TGI (U251 CNS) was 1360 nM, the GI50 (LOX IMVI melanoma) was 218 nM and the TGI (LOX IMVI melanoma) was 703 nM. The GI50 (OVCAR-3 ovarian) was 286 nM, the TGI (OVCAR-3 ovarian) was 1080 nM and the GI50 (SR leukemia) was 402 nM. The TGI (SR leukemia) was 25100 nM, the GI50 (MOLT-4 leukemia) was 439 nM and the TGI (MOLT-4 leukemia) was 14600 nM. The GI50 (SF-539 CNS) was 327 nM and the TGI (SF-539 CNS) was 886 nM.

From PubChem BioAssay (NCI)
